Common to all, as to assay type: cell-based
For assay [1], the system named is erythromycin resistant strain of Streptococcus pneumoniae. The experiment in a line: MIC, microtiter broth serial dilution test, erythromycin resistant S. pneumoniae. The following applies: read-out: MIC against erythromycin resistant strain of Streptococcus pneumoniae.
Another assay deals with E. faecalis. The experiment in a line: MIC, microtiter broth serial dilution test, E. faecalis. The following applies: Enterococcus faecalis; read-out: MIC against E. faecalis.
Another assay has as its system sensitive S. pyogenes. The experiment in a line: MIC, microtiter broth serial dilution test, sensitive S. pyogenes. The following applies: Streptococcus pyogenes; sensitive strain; read-out: MIC against sensitive S. pyogenes.
A further assay deals with sensitive S. pneumoniae. The experiment in a line: MIC, microtiter broth serial dilution test, sensitive S. pneumoniae. The settings on record: Streptococcus pneumoniae; sensitive strain; read-out: MIC against sensitive S. pneumoniae.
In assay [2] the test system is erythromycin resistant strain of Streptococcus pyogenes. The assay can be described thus: MIC, microtiter broth serial dilution test, erythromycin resistant S. pyogenes. The settings on record: read-out: MIC against erythromycin resistant strain of Streptococcus pyogenes.
The subject of the next assay is M. catarrhalis. The experiment in a line: MIC, microtiter broth serial dilution test, M. catarrhalis. The following applies: Moraxella catarrhalis; read-out: MIC against M. catarrhalis.

Where a name gives a salt, the structure may show the parent alone.

For `CC[C@H]1OC(=O)[C@H](C)[C@@H](OC2C[C@@](C)(OC)[C@@H](OCCNCCOCCOCCNc3cc4c(=O)c(C(=O)O)cn(C5CC5)c4cc3Cl)[C@H](C)O2)[C@H](C)[C@@H](O[C@@H]2O[C@H](C)C[C@H](N(C)C)[C@H]2O)[C@](C)(O)C[C@@H](C)CN(C)[C@H](C)[C@@H]2OC(=O)O[C@]12C` (stereo partly shown) [Example 2, 4″-O-[2-(2-{2-[2-(3-Carboxy-7-chloro-1-cyclopropyl-4-oxo-1,4-dihydro-quinolin-6-yl-amino)-ethoxy]-ethoxy}-ethylamino)-ethyl]-azithromycin 11,12-cyclic carbonate], the MIC (in general, the smallest concentration in the dilution series that meets the test's criterion for growth inhibition) in assay [1] is ≤ 0.25 µg/mL; with E. faecalis it was ≤ 1 µg/mL; with sensitive S. pyogenes it was ≤ 0.125 µg/mL; in the assay with sensitive S. pneumoniae, ≤ 0.125 µg/mL; in assay [2] it was ≤ 0.25 µg/mL.

Take `CC[C@H]1OC(=O)[C@H](C)[C@@H](OC2C[C@@](C)(OC)[C@@H](OCCNCCOCCNc3cc4c(=O)c(C(=O)O)cn(C5CC5)c4cc3Cl)[C@H](C)O2)[C@H](C)[C@@H](O[C@@H]2O[C@H](C)C[C@H](N(C)C)[C@H]2O)[C@](C)(O)C[C@@H](C)CN(C)[C@H](C)[C@@H]2OC(=O)O[C@]12C` (stereo partly shown) [Example 3, 4″-O-(2-{2-[2-(3-Carboxy-7-chloro-1-cyclopropyl-4-oxo-1,4-dihydro-quinolin-6-ylamino)-ethoxy]-ethylamino}-ethyl)-azithromycin 11,12-cyclic carbonate]: the MIC is ≤ 0.25 µg/mL in assay [1]; ≤ 1 µg/mL in the assay with E. faecalis; ≤ 0.125 µg/mL with sensitive S. pyogenes; ≤ 0.125 µg/mL in the assay on sensitive S. pneumoniae; ≤ 0.25 µg/mL in assay [2].

`CC[C@H]1OC(=O)[C@H](C)[C@@H](O[C@H]2C[C@@](C)(OC)[C@@H](OCCCNCCOCCCc3ccc4c(c3)c(=O)c(C(=O)O)cn4CC)[C@H](C)O2)[C@H](C)[C@@H](O[C@@H]2O[C@H](C)C[C@H](N(C)C)[C@H]2O)[C@](C)(O)C[C@@H](C)CN(C)[C@H](C)[C@@H](O)[C@]1(C)O` [Example 5, 4″-O-(3-{2-[3-(3-Carboxy-1-ethyl-4-oxo-1,4-dihydro-quinolin-6-yl)-propoxy]-ethylamnio}-propyl)-azithromycin]: the MIC in assay [1] was ≤ 0.25 µg/mL; with E. faecalis it was ≤ 1 µg/mL; in the assay with sensitive S. pyogenes, ≤ 0.125 µg/mL; in the assay with sensitive S. pneumoniae, ≤ 0.125 µg/mL; in assay [2], ≤ 0.25 µg/mL; in the assay on M. catarrhalis, ≤ 1 µg/mL.

For the compound `CC[C@H]1OC(=O)[C@H](C)[C@@H](O[C@H]2C[C@@](C)(OC)[C@@H](OCCCOCCOCCCc3ccc4c(c3)c(=O)c(C(=O)O)cn4CC)[C@H](C)O2)[C@H](C)[C@@H](O[C@@H]2O[C@H](C)C[C@H](N(C)C)[C@H]2O)[C@](C)(O)C[C@@H](C)CN(C)[C@H](C)[C@@H](OC)[C@]1(C)O` [Example 8, 4″-O-(3-{2-[3-(3-Carboxy-1-ethyl-4-oxo-1,4-dihydro-quinolin-6-yl)-propoxy]-ethoxy}-propyl)-11-O-methyl azithromycin], the MIC in assay [1] is ≤ 0.25 µg/mL; in assay [2], ≤ 0.25 µg/mL; in the assay on M. catarrhalis, ≤ 1 µg/mL.

For the compound `CC[C@H]1OC(=O)[C@H](C)[C@@H](O[C@H]2C[C@@](C)(OC)[C@@H](OCCCNC(=O)CCOCCCc3ccc4c(c3)c(=O)c(C(=O)O)cn4N(C)C)[C@H](C)O2)[C@H](C)[C@@H](O[C@@H]2O[C@H](C)C[C@H](N(C)C)[C@H]2O)[C@](C)(OC)C[C@H](C)C(=O)[C@H](C)[C@@H](O)[C@]1(C)O` [Example 9, 4″-O-(3-{3-[3-(3-Carboxy-1-dimethylamino-4-oxo-1,4-dihydro-quinolin-6-yl)-propoxy]-propionylamino}-propyl)-6-O-methyl-erythromycin A], the MIC with E. faecalis is ≤ 1 µg/mL; in the assay with sensitive S. pyogenes, ≤ 0.125 µg/mL; with sensitive S. pneumoniae it was ≤ 0.125 µg/mL; in assay [2] it was ≤ 0.25 µg/mL; in the assay with M. catarrhalis, ≤ 1 µg/mL.

On to `CC[C@H]1OC(=O)[C@H](C)[C@@H](O[C@H]2C[C@@](C)(OC)[C@@H](OCCCNC(=O)CCOCCOCCNc3cc4c(=O)c(C(=O)O)cn(C5CC5)c4cc3Cl)[C@H](C)O2)[C@H](C)[C@@H](O[C@@H]2O[C@H](C)C[C@H](N(C)C)[C@H]2O)[C@](C)(O)C[C@@H](C)CN(C)[C@H](C)[C@@H](O)[C@]1(C)O` [Example 11, 4″-O-[3-(3-{2-[2-(3-carboxy-7-chloro-1-cyclopropyl-4-oxo-1,4-dihydro-quinolin-6-ylamino)-ethoxy]-ethoxy}-propionylamino)-propyl]-azithromycin], for which the MIC in assay [1] was ≤ 0.25 µg/mL; in the assay on E. faecalis, ≤ 1 µg/mL; in the assay on sensitive S. pyogenes, ≤ 0.125 µg/mL; in the assay on sensitive S. pneumoniae, ≤ 0.125 µg/mL; in assay [2], ≤ 0.25 µg/mL.

Turning to `CC[C@H]1OC(=O)[C@H](C)[C@@H](O[C@H]2C[C@@](C)(OC)[C@@H](OCCCOCCCOCCCc3ccc4c(c3)c(=O)c(C(=O)O)cn4C3CC3)[C@H](C)O2)[C@H](C)[C@@H](O[C@@H]2O[C@H](C)C[C@H](N(C)C)[C@H]2O)[C@](C)(O)C[C@@H](C)CN(C)[C@H](C)[C@@H](O)[C@]1(C)O` [Example 13, 4″-O-(3-{3-[3-(3-Carboxy-1-cyclopropyl-4-oxo-1,4-dihydro-quinolin-6-yl)-propoxy]-propoxy}-propyl)-azithromycin], the MIC in assay [1] is ≤ 0.25 µg/mL; with E. faecalis it was ≤ 1 µg/mL; with sensitive S. pyogenes, ≤ 0.125 µg/mL; in the assay on sensitive S. pneumoniae, ≤ 0.125 µg/mL; in assay [2] it was ≤ 0.25 µg/mL; in the assay on M. catarrhalis it was ≤ 1 µg/mL.

Take `CC[C@H]1OC(=O)[C@H](C)[C@@H](O[C@H]2C[C@@](C)(OC)[C@@H](OCCCOCCOCCCc3ccc4c(c3)c(=O)c(C(=O)O)cn4N(C)C)[C@H](C)O2)[C@H](C)[C@@H](O[C@@H]2O[C@H](C)C[C@H](N(C)C)[C@H]2O)[C@](C)(O)C[C@@H](C)CN(C)[C@H](C)[C@@H](O)[C@]1(C)O` [Example 15, 4″-O-(3-{2-[3-(3-Carboxy-1-dimethylamino-4-oxo-1,4-dihydro-quinolin-6-yl)-propoxy]-ethoxy}-propyl)-azithromycin]: the MIC in assay [1] is ≤ 0.25 µg/mL; in the assay on E. faecalis it was ≤ 1 µg/mL; in the assay on sensitive S. pyogenes, ≤ 0.125 µg/mL; in the assay with sensitive S. pneumoniae it was ≤ 0.125 µg/mL; in assay [2], ≤ 0.25 µg/mL; in the assay on M. catarrhalis, ≤ 1 µg/mL.

Turning to `CC[C@H]1OC(=O)[C@H](C)[C@@H](O[C@H]2C[C@@](C)(OC)[C@@H](OCCNCCOCCNc3cc4c(cc3F)c(=O)c(C(=O)O)cn4C3CC3)[C@H](C)O2)[C@H](C)[C@@H](O[C@@H]2O[C@H](C)C[C@H](N(C)C)[C@H]2O)[C@](C)(O)C[C@@H](C)CN(C)[C@H](C)[C@H]2OC(=O)O[C@@]21C` [Example 16, 4″-O-(2-{2-[2-(3-Carboxy-6-fluoro-1-cyclopropyl-4-oxo-1,4-dihydro-quinolin-7-ylamino)-ethoxy]-ethylamino}-ethyl)-azithromycin 11,12-cyclic carbonate], the minimal inhibitory concentration (MIC) was ≤ 0.25 µg/mL in assay [1]; ≤ 1 µg/mL in the assay with E. faecalis; ≤ 0.125 µg/mL in the assay with sensitive S. pyogenes; ≤ 0.125 µg/mL in the assay on sensitive S. pneumoniae; ≤ 0.25 µg/mL in assay [2].

Turning to `CC[C@H]1OC(=O)[C@H](C)[C@@H](O[C@H]2C[C@@](C)(OC)[C@@H](OCCNCCOCCOCCc3ccc4c(c3)c(=O)c(C(=O)O)cn4CC)[C@H](C)O2)[C@H](C)[C@@H](O[C@@H]2O[C@H](C)C[C@H](N(C)C)[C@H]2O)[C@](C)(OC)C[C@@H](C)C(=O)[C@H](C)[C@@H](O)[C@]1(C)O` [Example 18, 4″-O-{2-({2-[(2-{[2-(3-Carboxy-1-ethyl-4-oxo-1,4-dihydro-6-quinolinyl)ethyl]oxy}ethyl)oxy]ethyl}amino)ethyl}-6-O-methyl-erythromycin A formate], the MIC in assay [1] is ≤ 0.25 µg/mL; in the assay with E. faecalis it was ≤ 1 µg/mL; in the assay on sensitive S. pyogenes, ≤ 0.125 µg/mL; with sensitive S. pneumoniae it was ≤ 0.125 µg/mL; in assay [2], ≤ 0.25 µg/mL; in the assay on M. catarrhalis it was ≤ 1 µg/mL.

As to `CC[C@H]1OC(=O)[C@H](C)[C@@H](O[C@H]2C[C@@](C)(OC)[C@@H](OCCN(C)CCOCCOCCc3ccc4c(c3)c(=O)c(C(=O)O)cn4CC)[C@H](C)O2)[C@H](C)[C@@H](O[C@@H]2O[C@H](C)C[C@H](N(C)C)[C@H]2O)[C@](C)(OC)C[C@@H](C)C(=O)[C@H](C)[C@@H](O)[C@]1(C)O` [Example 19, 4″-O-{2-({2-[(2-{[2-(3-Carboxy-1-ethyl-4-oxo-1,4-dihydro-6-quinolinyl)ethyl]oxy}ethyl)oxy]ethyl}methylamino)ethyl}-6-O-methyl-erythromycin A], the MIC is ≤ 0.25 µg/mL in assay [1]; ≤ 1 µg/mL with E. faecalis; ≤ 0.125 µg/mL with sensitive S. pyogenes; ≤ 0.125 µg/mL in the assay with sensitive S. pneumoniae; ≤ 0.25 µg/mL in assay [2]; ≤ 1 µg/mL in the assay on M. catarrhalis.

The record behind these values is patent US7547679B2, “Ether linked macrolides useful for the treatment of microbial infections” (GlaxoSmithKline istrazivacki center Zagreb d.o.o, priority 2005, dated 2009).
